# Values quoted from earlier work in US20070082063A1, “Risk assessment and correction of membrane damage of the upper GI tract” (priority 2005, published 2007).
# Tests used:
# [1] = humans or animals with normal membrane arachidonate content
# [2] = animals with reduced membrane arachidonate
Structure (SMILES),effect on serum or tissue arachidonate content [1],effect on membrane arachidonate content [2]
"CCCCC/C=C\C/C=C\C/C=C\C/C=C\CCCC(=O)O [ARA, arachidonic acid]",little effect,–
"CCCCC/C=C\C/C=C\C/C=C\CCCCC(=O)O [GLA, gamma-linolenic acid]",–,significantly increase
